Laboratory results from US8334107B2, “Detection systems utilizing supported lipid bilayers” (priority 2005, dated 2012).

Legend:
anionic phospholipids [1] = assay: Affinity of PLA2 for anionic phospholipids (Kim et al.); format: binding
From the text: From FIG. 18, the association constant (corresponding to the reciprocal of the point of half saturation) for nMLT and sMLT with DMPG were 5×10^6 M^−1 and 1.7×10^6 M^−1, respectively. […] Lower concentrations of nMLT, in comparison to sMLT, were required to disrupt the DMPG lipid bilayer. This might be attributed to the fact that nMLT contains some phospholipase A2 (PLA2) as a contaminant. PLA2 has a high affinity for anionic phospholipids, with an association constant of 0.5×10^10 M^−1 (Kim et al., Anal. Chem. 250, 109-116 (1997)), which is about 3000 fold higher than that of MLT. Although PLA2 activity requires calcium, which is not present in the experimental system, it has been reported that even upon addition of EDTA to natural MLT, PLA2 maintains its activity, probably due to formation of a tight complex with calcium with PLA2 (Dempsey, C. E. Biochim. Biophys. Acta 1990, 1031, 143-161).

lipid bilayer = assay: Superquenching of fluorescent polymer coated lipid bilayer beads (general statement); format: biochemical; settings: streptolysin O with cholesterol-containing lipids, mellitin with anionic lipids
From the text: On the other hand, some test agents may only lead to gaps or smaller interruptions of the lipid bilayer, for example, as a result of insertion of a channel- or pore-forming proteins such as gramicidin and hemolysin. In either case, the result is either complete or partial superquenching of the fluorescent polymer. In general, non-porous beads are used for such quenching assays because the quenchable polymer is preferably coated onto the beads and is not impregnated into the beads.

anionic phospholipids [2] = settings: cited from earlier work
[3] = test system: cholesterol (10%, molar ratio) containing lipid membrane; assay: Release of dye from porous particles coated with cholesterol containing lipid membrane by streptolysin-O; format: biochemical; settings: low concentrations of streptolysin-O versus control without
Procedure: FIGS. 22A-B illustrate one aspect of the invention—drug and/or dye release from the present lipid-coated particles. FIG. 22A is a graph showing release of dye from porous particles (containing dye inside) where the particles are coated with a cholesterol (10%, molar ratio) containing lipid membrane. As increasing amounts of streptolysin-O are added (solid square symbols represent lower concentration than solid ovals), more dye is released. […] FIG. 22B illustrates how streptolysin-O can disrupt cholesterol-containing lipid bilayer membranes, leading to release of materials (e.g., drugs or antibiotics) enclosed within the membrane. Streptolysin-O is an anti-microbial protein that preferably binds to cholesterol and can disrupt cholesterol-containing membranes.

monomeric IgG = settings: cited from earlier work

For “PLA2: lipolytic enzyme, contaminant of natural melittin”, the “association constant relative to that of MLT” value (anionic phospholipids [1]) is given as “about 3000 fold”, the “effect on the lipid bilayer” value (lipid bilayer) is given as “total disruption of the bilayer” and the association constant (anionic phospholipids [2]) is given as 5e+09 M⁻¹.

For “streptolysin-O: anti-microbial protein that preferably binds to cholesterol and can disrupt cholesterol-containing membranes”, the release of dye [3] was “greater than observed for control” and the “effect on the lipid bilayer” value (lipid bilayer) was “total disruption of the bilayer”.

B1: FcγRIIb: low affinity IgG receptor, single polypeptide chain of 310 amino acids (protein, UniProt P31994 43-310, looked up)
Low affinity immunoglobulin …: TPAAPPKAVLKLEPQWINVLQEDSVTLTCRGTHSPESDSIQWFHNGNLIPTHTQPSYRFKANNNDSGEYTCQTGQTSLSDPVHLTVLSEWLVLQTPHLEFQEGETIVLRCHSWKDKPLVKVTFFQNGKSKKFSRSDPNFSIPQANHSHSGDYHCTGNIGYTLYSSKPVTITVQAPSSSPMGIIVAVVTGIAVAAIVAAVVALIYCRKKRISALPGYPECREMGETLPEKPANPTNPDEADKVGAENTITYSLLMHPDALEEPDDQNRI
In the case of B1, the Kd (monomeric IgG) is given as about 1000 nM.
